Measurements published in US6090605A, “Purified porcine kidney L-fucose kinase” (The Board of Trustees of the University of Arkansas, priority 1998, dated 2000).

Assays:
pig kidney fucokinase [1] = molecular target: T1, pig kidney fucokinase (Sus scrofa, UniProt I3LTC2); assay: Inhibition of fucokinase by GDP-L-fucose and other GDP-linked sugars; format: biochemical
T1 construct: L-Fucokinase was purified to apparent homogeneity from the cytosolic fraction of pig kidney; from tissue; host or cells: pig kidney, cytosolic fraction
T1 sequence (I3LTC2 1-1083): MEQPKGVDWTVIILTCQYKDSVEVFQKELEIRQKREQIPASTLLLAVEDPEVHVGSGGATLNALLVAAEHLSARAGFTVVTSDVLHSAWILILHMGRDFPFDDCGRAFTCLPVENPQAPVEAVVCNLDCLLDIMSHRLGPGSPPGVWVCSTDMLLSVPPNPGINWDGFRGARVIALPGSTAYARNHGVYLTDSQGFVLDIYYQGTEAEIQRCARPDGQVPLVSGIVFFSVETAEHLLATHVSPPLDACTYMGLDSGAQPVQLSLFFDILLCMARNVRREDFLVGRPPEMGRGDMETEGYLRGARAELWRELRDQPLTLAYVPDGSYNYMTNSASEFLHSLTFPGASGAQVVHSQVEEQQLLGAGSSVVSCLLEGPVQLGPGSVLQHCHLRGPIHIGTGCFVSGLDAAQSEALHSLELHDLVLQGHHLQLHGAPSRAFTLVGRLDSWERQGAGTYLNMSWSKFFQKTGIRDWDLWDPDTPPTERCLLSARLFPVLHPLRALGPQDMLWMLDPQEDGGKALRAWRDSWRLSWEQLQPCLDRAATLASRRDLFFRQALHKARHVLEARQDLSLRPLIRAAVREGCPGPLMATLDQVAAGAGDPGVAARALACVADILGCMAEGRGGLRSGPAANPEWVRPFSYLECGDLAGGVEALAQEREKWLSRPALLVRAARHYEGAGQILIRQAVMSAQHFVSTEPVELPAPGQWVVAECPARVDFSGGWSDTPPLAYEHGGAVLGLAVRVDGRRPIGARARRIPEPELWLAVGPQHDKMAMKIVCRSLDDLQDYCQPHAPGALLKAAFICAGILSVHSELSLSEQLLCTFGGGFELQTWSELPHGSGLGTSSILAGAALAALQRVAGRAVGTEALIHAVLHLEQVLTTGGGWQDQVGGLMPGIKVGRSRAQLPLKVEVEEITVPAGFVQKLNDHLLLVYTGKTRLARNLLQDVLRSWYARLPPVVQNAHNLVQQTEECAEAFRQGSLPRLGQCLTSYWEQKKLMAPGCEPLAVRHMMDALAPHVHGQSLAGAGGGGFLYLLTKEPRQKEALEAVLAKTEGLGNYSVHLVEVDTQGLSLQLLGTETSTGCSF
Method: (§1) Fucokinase activity was assayed by measuring the production of L-fucose-1-Pfrom [^3 H]L-fucose and ATP. The incubation mixtures contained the following components (final concentrations) in a total volume of 150 μl: L-fucose, 0.1 mM; ATP, 5 mM; MgSO4, 5 mM; Tris-HCl buffer, pH 8.0, 65 mM; and various amounts of enzyme at the different stages of purification. Incubations were at 37° C. for 10 minutes, and reactions were terminated by heating the reaction mixtures in a boiling water bath for 1 minute. The incubation mixtures were then applied to a column of DE-52 contained in a Pasteur pipette, and the column was washed with at least 5 column volumes of 10 mM (NH4)HCO3 to remove the unbound material. The [^3 H]fucose-1-P was then eluted with 500 mM (NH4)HCO3. Aliquots of the eluates were assayed for their radioactive content by subjecting a portion to scintillation counting.
It can be seen that the amount of inhibition of fucokinase increased with increasing amounts of GDP-L-fucose, and the Ki for GDP-L-fucose was estimated to be about 10 μM.

pig kidney fucokinase [2] = molecular target: T1, pig kidney fucokinase; assay: Inhibition of [3H]L-fucose phosphorylation by unlabeled monosaccharides; format: biochemical; details: unlabeled monosaccharide 500 μM; radiolabeled L-fucose substrate 100 μM
Method: as §1
Although it was possible to get a reasonable assessment of the sugar specificity of the kinase from the above experiment, it was not possible to test sugars such as D-fucose, since these sugars are not available in radioactive form. Thus, these unlabeled sugars were tested for their ability to inhibit the phosphorylation of [^3 H]L-fucose. The rationale for this experiment is that a sugar that inhibits the phosphorylation of L-fucose would probably compete with L-fucose for the phosphorylation (i.e., active) site.

[3] = tested on: pig liver L-fucokinase preparation; details: cited from earlier work
pig kidney fucokinase [4] = molecular target: T1, pig kidney fucokinase; assay: Sugar specificity of purified fucokinase (radiolabeled sugars as phosphate acceptors); format: biochemical
Method: as §1
The specificity of the kinase for various sugar substrates was examined in two different ways. In the first set of experiments, various radiolabeled sugars were tested as phosphate acceptors for the purified enzyme using the ion-exchange chromatography method for assay of activity. […] D-Arabinose, which has the same configuration at carbons 1 through 4 as L-fucose, was also a reasonable substrate for phosphorylation, and was about 10% as effective as L-fucose. On the other hand, all of the other sugars were ineffective as phosphate acceptors.

[5] = molecular target: T2, pig kidney fucokinase (110 kDa band) (Sus scrofa, UniProt I3LTC2); assay: Photoaffinity labeling of the fucokinase with 8-azido-ATP[32P]; format: binding; details: unlabeled ATP 0.3-1.2 mM; GTP, ITP 0.6 and 1.2 mM
T2 construct: L-Fucokinase was purified to apparent homogeneity from the cytosolic fraction of pig kidney; from tissue; host or cells: pig kidney, cytosolic fraction
T2 sequence (I3LTC2 1-1083): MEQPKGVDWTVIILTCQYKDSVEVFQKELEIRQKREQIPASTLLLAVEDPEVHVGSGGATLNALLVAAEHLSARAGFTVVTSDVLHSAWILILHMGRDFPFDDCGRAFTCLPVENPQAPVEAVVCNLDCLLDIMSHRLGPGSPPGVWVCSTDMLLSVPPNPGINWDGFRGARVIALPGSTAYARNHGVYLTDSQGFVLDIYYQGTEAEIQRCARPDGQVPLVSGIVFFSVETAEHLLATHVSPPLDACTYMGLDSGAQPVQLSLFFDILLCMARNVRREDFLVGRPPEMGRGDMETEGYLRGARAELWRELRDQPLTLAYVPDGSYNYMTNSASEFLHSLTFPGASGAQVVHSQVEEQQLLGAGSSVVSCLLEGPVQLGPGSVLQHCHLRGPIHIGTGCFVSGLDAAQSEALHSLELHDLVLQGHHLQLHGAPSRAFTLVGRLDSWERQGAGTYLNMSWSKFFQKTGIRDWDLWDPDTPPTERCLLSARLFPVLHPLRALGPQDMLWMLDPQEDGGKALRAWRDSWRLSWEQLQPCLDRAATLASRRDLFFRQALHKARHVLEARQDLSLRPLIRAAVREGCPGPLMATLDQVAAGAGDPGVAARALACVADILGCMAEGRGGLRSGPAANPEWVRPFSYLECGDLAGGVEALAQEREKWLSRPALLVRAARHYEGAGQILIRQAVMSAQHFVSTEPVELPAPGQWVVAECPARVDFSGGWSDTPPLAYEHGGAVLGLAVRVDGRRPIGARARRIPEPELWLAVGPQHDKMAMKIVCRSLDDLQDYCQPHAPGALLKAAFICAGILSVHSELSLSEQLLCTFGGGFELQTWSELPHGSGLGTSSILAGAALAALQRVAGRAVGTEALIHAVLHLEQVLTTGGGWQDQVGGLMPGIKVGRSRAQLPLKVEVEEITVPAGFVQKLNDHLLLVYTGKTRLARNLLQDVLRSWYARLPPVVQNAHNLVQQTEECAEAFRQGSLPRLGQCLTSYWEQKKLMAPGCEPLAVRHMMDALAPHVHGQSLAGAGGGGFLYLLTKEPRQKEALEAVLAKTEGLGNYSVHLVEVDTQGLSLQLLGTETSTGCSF
Method: The purified enzyme was incubated for 20 seconds with azido-ATP[^32 P], and the mixture was exposed to UV for 90 seconds. The reaction was stopped by adding loading buffer and the mixture subjected to SDS-PAGE. Radioactive bands were detected by exposure to film. Lanes are as follows: Lane 1, Probe+enzyme, but no UV; Lane 2, Probe+enzyme+UV; Lanes 3 through 6. Probe+enzyme+0.3, 0.6, 0.9, and 1.2 mM ATP+exposure to UV light; lanes 7 and 8, 0.6 and 1.2 mM GTP+probe+exposure to UV light: lanes 9 and 10, 0.6 and 1.2 mM ITP+probe+exposure to UV light. In lanes 11 and 12, the enzyme was incubated with N3 -GTP[^32 P ] and then exposed to UV light (lane 12) or not exposed to UV light (lane 11). Lane 13 is a control of enzyme+N3 -ATP[^32 P]+exposure to UV light.
Enzyme, at various stages of purity, was mixed with 8-azido-ATP[^32 P] in buffer, and allowed to incubate for 20 sec. in an ice bath. 8-Azido-ATP[^32 P] was prepared as previously described (16). After incubation, the reaction mixture was exposed to short wave UV light for about 90 sec. to activate the azido group, and the protein was subjected to SDS gel electrophoresis to separate the proteins. The gels were dried and exposed to film to locate the radioactive bands and were also stained with Coomassie blue to locate the various proteins. The specificity of the labeling was determined by examining the effect of various concentrations of unlabeled ATP or other nucleotides on the labeling of the protein by N3 -ATP[^32 P]. Various controls were also run, such as one in which exposure to UV was omitted.
Lanes 11-13 of FIG. 3 show the results of another experiment designed to determine whether 8-N3 -GTP[^32 P] could label the fucokinase. […] These experiments indicate that the fucokinase is quite specific for ATP.

pig kidney fucokinase [6] = molecular target: T1, pig kidney fucokinase; assay: Specificity of fucokinase for phosphate donor (nucleotides); format: biochemical; details: nucleotide added at 1 mM as phosphate donor
Method: as §1
The specificity of the nucleoside triphosphate was also examined by testing the ability of a variety of nucleotides to serve as phosphate donors in the phosphorylation of [^3 H]L-fucose. […] In addition, no activity is observed with any nucleoside diphosphates or monophosphates.

[7] = substrate: Nc1ncnc2c1ncn2[C@@H]1O[C@H](COP(=O)(O)OP(=O)(O)OP(=O)(O)O)[C@@H](O)[C@H]1O; assay: Effect of substrate concentration on velocity (Lineweaver-Burke, Km); format: biochemical, pig; details: other: 5 mM Mg++ and 100 μM L-fucose; pH 8.0; 37.0 °C
Method: as §1
(§2) The effect of concentration of the substrates, L-fucose and ATP, on the velocity of the reaction was determined. The Km for L-fucose was determined at saturating concentrations of the other substrates, i.e., 5 mM ATP and 5 mM Mg^++. […] A similar experiment was performed with ATP. In this case, the reactions were done in the presence of 5 mM Mg^++ and 100 μM L-fucose. The Km for ATP was estimated to be 600 μM (data not shown).

[8] = substrate: C[C@H](O)[C@@H](O)[C@@H](O)[C@H](O)C=O; assay: as above; format: biochemical, pig; details: other: 5 mM ATP and 5 mM Mg++; pH 8.0; 37.0 °C
Method: as §1, §2

## C[C@@H]1O[C@H](OP(=O)(O)O)[C@@H](O)[C@H](O)[C@@H]1O [L-fucose-1-P]
Pig kidney fucokinase [1]
  inhibition of the fucokinase (in words): did not inhibit

## O=C[C@H](O)[C@@H](O)[C@@H](O)[C@H](O)CO [D-galactose]
Pig kidney fucokinase [2]
  Relative Activity (%): 100%
[3]
  rate of phosphorylation compared with L-fucose (in words): about the same rate or better
Pig kidney fucokinase [4]; purified enzyme
  activity as phosphate acceptor (in words): does not phosphorylate
Pig kidney fucokinase [4]; radiolabeled sugar 100 μM as phosphate acceptor
  Specific Activity: 0 nmole/mg protein

## Nc1ncnc2c1ncn2[C@@H]1O[C@H](COP(=O)(O)OP(=O)(O)OP(=O)(O)O)[C@@H](O)[C@H]1O [ATP]
[5]
  inhibition of labeling of the 110 kDa band by N3-ATP[32P] (in words): inhibited in a dose-dependent manner
Pig kidney fucokinase [6]
  Specific Activity: 4.05 nmoles/mg protein/10 min

## Nc1nc2c(ncn2[C@@H]2O[C@H](COP(=O)(O)OP(=O)(O)OC3O[C@H](CO)[C@@H](O)[C@H](O)[C@H]3O)[C@@H](O)[C@H]2O)c(=O)[nH]1 (stereo partly drawn) [GDP-D-glucose]
Pig kidney fucokinase [1]
  inhibition of the fucokinase (in words): did not inhibit

B1: pig kidney fucokinase (Sus scrofa) (protein)
chain: MEQPKGVDWTVIILTCQYKDSVEVFQKELEIRQKREQIPASTLLLAVEDPEVHVGSGGATLNALLVAAEHLSARAGFTVVTSDVLHSAWILILHMGRDFPFDDCGRAFTCLPVENPQAPVEAVVCNLDCLLDIMSHRLGPGSPPGVWVCSTDMLLSVPPNPGINWDGFRGARVIALPGSTAYARNHGVYLTDSQGFVLDIYYQGTEAEIQRCARPDGQVPLVSGIVFFSVETAEHLLATHVSPPLDACTYMGLDSGAQPVQLSLFFDILLCMARNVRREDFLVGRPPEMGRGDMETEGYLRGARAELWRELRDQPLTLAYVPDGSYNYMTNSASEFLHSLTFPGASGAQVVHSQVEEQQLLGAGSSVVSCLLEGPVQLGPGSVLQHCHLRGPIHIGTGCFVSGLDAAQSEALHSLELHDLVLQGHHLQLHGAPSRAFTLVGRLDSWERQGAGTYLNMSWSKFFQKTGIRDWDLWDPDTPPTERCLLSARLFPVLHPLRALGPQDMLWMLDPQEDGGKALRAWRDSWRLSWEQLQPCLDRAATLASRRDLFFRQALHKARHVLEARQDLSLRPLIRAAVREGCPGPLMATLDQVAAGAGDPGVAARALACVADILGCMAEGRGGLRSGPAANPEWVRPFSYLECGDLAGGVEALAQEREKWLSRPALLVRAARHYEGAGQILIRQAVMSAQHFVSTEPVELPAPGQWVVAECPARVDFSGGWSDTPPLAYEHGGAVLGLAVRVDGRRPIGARARRIPEPELWLAVGPQHDKMAMKIVCRSLDDLQDYCQPHAPGALLKAAFICAGILSVHSELSLSEQLLCTFGGGFELQTWSELPHGSGLGTSSILAGAALAALQRVAGRAVGTEALIHAVLHLEQVLTTGGGWQDQVGGLMPGIKVGRSRAQLPLKVEVEEITVPAGFVQKLNDHLLLVYTGKTRLARNLLQDVLRSWYARLPPVVQNAHNLVQQTEECAEAFRQGSLPRLGQCLTSYWEQKKLMAPGCEPLAVRHMMDALAPHVHGQSLAGAGGGGFLYLLTKEPRQKEALEAVLAKTEGLGNYSVHLVEVDTQGLSLQLLGTETSTGCSF
notes: L-Fucokinase was purified to apparent homogeneity from the cytosolic fraction of pig kidney; from tissue; host or cells: pig kidney, cytosolic fraction
[7]
  Km: 600 µM
[8]
  Km: 27 µM
